Data set [1] relates to IL-1β production in human peripheral blood mononuclear cells (PBMCs). Kind of data set: inhibition of LPS-stimulated IL-1β production in human PBMCs (ELISA). The data set is classed as cell-based. The conditions noted are these: LPS stimulated overnight, mature IL-1β by ELISA. From the text: (§1) Further evidence that compounds of Formula I are inhibitors of ICE is provided by their ability to inhibit IL-1β production in human peripheral blood mononuclear cells (PBMCs) as described herein. PBMCs are isolated from heparinized blood by centrifugation over a ficoll cushion, then washed three times with phosphate-buffered saline. PBMCs are suspended in a medium containing RPMI 1640 with glutamine, penicillin, streptomycin and 2% human AB serum, then plated at 10^6 cells per well in 96 well flat bottom plates. PBMCs are stimulated overnight with 10 ngmL of lipopolysaccharide (LPS, E. coli strain 0111:B4; Calbiochem) in the presence or absence of a compound of Formulas I or II. Medium is harvested and the level of mature IL-1β was determined using an ELISA kit from R & D Systems. Cells were cultured for an additional 4 hours in the presence of 3-(4,5-dimethylthiazol-2-yl)-2,5-diphenyltetrazolium bromide (MTT) to determine viability.

Data set [2] addresses T1, ICE (interleukin-1β converting enzyme) (Homo sapiens, UniProt P29466).
T1 sequence (P29466 120-297 limits assumed): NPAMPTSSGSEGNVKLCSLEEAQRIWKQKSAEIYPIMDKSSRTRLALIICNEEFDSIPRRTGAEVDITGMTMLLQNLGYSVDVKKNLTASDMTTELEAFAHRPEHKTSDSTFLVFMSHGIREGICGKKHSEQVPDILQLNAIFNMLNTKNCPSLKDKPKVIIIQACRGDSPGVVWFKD
T1 sequence (P29466 317-404 limits assumed): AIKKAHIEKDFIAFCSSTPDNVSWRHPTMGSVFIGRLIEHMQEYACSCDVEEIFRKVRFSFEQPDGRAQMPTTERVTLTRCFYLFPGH
Kind of data set: ICE Colorimetric Dose-Response (IC50) Assay. The data set is classed as biochemical. Conditions: 50 μM Ac-Tyr-Val-Ala-Asp-pNA, 60 min preincubation, pH 7.5, 25° C. As to the method: Substrate hydrolysis is monitored for 300 seconds by observing the fluorescence of released AMC using excitation at 380 nm and emission at 460 nm. Mean rates of substrate hydrolysis are evaluated by linear-regression analysis of the fluorescence vs time traces. […] ICE Colorimetric Dose-Response (IC50) Assay Diluted inhibitor stocks are prepared by two-fold serial dilution from a primary stock whose concentration is selected (based on screening results or on prior attempts at IC50 evaluation) to achieve approximately 95% inhibition in the most concentrated well. Aliquots of each dilution are transferred to a microtitre plate in triplicate. […] The activated enzyme is then aliquoted into wells containing inhibitor or vehicle, and the plate is preincubated for 60 minutes at ambient temperature. Substrate ([…]) is added to each well to a final concentration of 50 μM, and plates are placed in the microtitre plate-reader thermostated to 25° C. Beginning 5 minutes after addition of substrate, absorbance (405 nm) of wells is monitored for 1 hour, and activity is calculated as the mean rate of change in absorbance during this interval.

Data set [3] has as its target T1, ICE (interleukin-1β converting enzyme). Kind of data set: ICE inhibition, Ki, fluorescence assay with Ac-Tyr-Val-Ala-Asp-AMC. The class given is biochemical. The conditions noted are these: 15 μM substrate Ac-Tyr-Val-Ala-Asp-AMC; 0.24 nM ICE; reversible, competitive model. The procedure: Substrate hydrolysis is monitored for 300 seconds by observing the fluorescence of released AMC using excitation at 380 nm and emission at 460 nm. Mean rates of substrate hydrolysis are evaluated by linear-regression analysis of the fluorescence vs time traces. […] ICE Colorimetric Dose-Response (IC50) Assay

For data set [4], the target named is T2, Ich-2 (Homo sapiens, UniProt P49662).
T2 sequence (P49662 81-270 limits assumed): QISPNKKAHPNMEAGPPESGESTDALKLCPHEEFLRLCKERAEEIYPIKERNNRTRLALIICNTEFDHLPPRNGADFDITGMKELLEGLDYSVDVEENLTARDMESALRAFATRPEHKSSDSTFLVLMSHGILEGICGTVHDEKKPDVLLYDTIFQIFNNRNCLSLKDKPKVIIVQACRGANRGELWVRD
T2 sequence (P49662 290-377 limits assumed): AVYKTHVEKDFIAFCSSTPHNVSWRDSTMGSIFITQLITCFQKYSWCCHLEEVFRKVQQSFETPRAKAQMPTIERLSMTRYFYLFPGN
Kind of data set: Ich-2 Colorimetric Dose-Response (IC50) Assay. The data set is classed as biochemical. Conditions: 64 nM enzyme, 60 μM Ac-Leu-Glu-Val-Asp-pNA. As to the method:
Diluted inhibitor stocks are prepared by two-fold serial dilution from a primary stock whose concentration is selected (based on screening results or on prior attempts at IC50 evaluation) to achieve approximately 95% inhibition in the most concentrated well. Aliquots of each dilution are transferred to a microtitre plate in triplicate.
ICE enzyme is diluted to approximately 24 nM in HGE buffer (100 mM Hepes pH 7.5, 0.5 mM EDTA, 20% glycerol, 0.1% Bovine Serum Albumin (BSA), and activated by adding dithiothreitol (DTT) to a final concentration of 5 mM. The activated enzyme is then aliquoted into wells containing inhibitor or vehicle, and the plate is preincubated for 60 minutes at ambient temperature. Substrate (Ac-Tyr-Val-Ala-Asp-pNA) is added to each well to a final concentration of 50 μM, and plates are placed in the microtitre plate-reader thermostated to 25° C. Beginning 5 minutes after addition of substrate, absorbance (405 nm) of wells is monitored for 1 hour, and activity is calculated as the mean rate of change in absorbance during this interval.
Ich-2 Colorimetric Dose-Response (IC50 Assay
Inhibition of Ich-2 enzyme is assayed as described above for ICE, except that enzyme is used at 64 nM, and 60 μM of the Ich-2-specific substrate Ac-Leu-Glu-Val-Asp-pNA is used instead of the ICE substrate Ac-Tyr-Val-Ala-Asp-pNA.

Data set [5] can be described thus: PBMC viability (MTT). The data set is classed as cell-based. The conditions noted are these: human PBMCs, additional 4 hours, read-out: PBMC TC50.
Excerpt: as §1

pIC50, pKi: −log10 of the molar value. Read-outs that look alike come from different tables or passages of the source.

`COC(=O)CC1CCCC2CC(=O)N(OCC(=O)[C@H](CC(=O)O)NC(=O)OCc3ccccc3)C12` (some centres unmarked) [Example 5, 3-Benzyloxycarbonylamino-5-(7-methoxycarbonylmethyl-2-oxo-octahydro-indol-1-yloxy)-4-oxo-pentanoic acid]: the values for the pIC50 in data set [1] (PBMC), in data set [2] and in data set [4] were 3.05, 4.10 and 4.47, respectively. The pKi (usually the negative decadic logarithm of the Ki, by convention in mol/L) in data set [3] was 4.82.
In the case of `O=C(O)C[C@H](NC(=O)OCc1ccccc1)C(=O)CON1C(=O)C2C3C=CC(O3)C2C1=O` (some centres unmarked) [Example 3, 3-Benzyloxycarbonylamino-5-(3,5-dioxo-10-oxa-4-aza-tricyclo[5.2.1.0^2,6]dec-8-en-4-yloxy)-4-oxo-pentanoic acid], in data set [5], the CC50 at 4 h was found to be 1000 µM. Further, the negative logarithm of the IC50 (pIC50) – broadly, the negative decadic logarithm of the IC50, by convention in mol/L – in data set [1] (PBMC) was 3.00; in data set [2], 6.34; in data set [4], 7.00. This compound gave a negative logarithm of the Ki (pKi) in data set [3] of 5.68.
Turning to `COC(=O)CC1CCCC2CC(=O)N(OCC(=O)C(CC(=O)O)NC(=O)C(C)NC(=O)C(NC(=O)OCc3ccccc3)C(C)C)C12` (centres unmarked) [Example 7], the values for the negative-log IC50 (pIC50) in data set [1] (read-out: PBMC IC50), in data set [2] and in data set [4] were 5.32, 7.59 and 6.85, respectively. Further, in data set [3], the pKi was 8.15.
Turning to `CC(NC(=O)C(NC(=O)OCc1ccccc1)C(C)C)C(=O)NC(CC(=O)O)C(=O)CON1C(=O)Cc2ccccc21` (centres unmarked) [Example 8, 3-[2-(2-benzyloxicarbonylamino-3-methyl-butyrylamino)-propionylamino]-4-oxo-5-(2-oxo-2,3-dihydro-indol-1-yloxy)-pentanoic acid], the pIC50 was 5.52 in data set [1] (PBMC), 8.52 in data set [2] and 8.30 in data set [4]. In data set [3], this compound had a negative logarithm of the Ki (pKi) of 8.70.
In the case of `O=C(O)CC(NC(=O)OCc1ccccc1)C(=O)CON1C(=O)Cc2ccccc21` (centres unmarked) [Example 4, 3-Benzyloxycarbonylamino-5-(2-oxo-2,3-dihydro-indol-1-yloxy)-4-oxo-pentannic acid], the CC50 at 4 h in data set [5] turned out to be 1000 µM. The pIC50 is 3.00 in data set [1] (PBMC), 5.51 in data set [2] and 7.10 in data set [4]. In data set [3], this compound had a pKi of 5.80.
`O=C(O)C[C@H](NC(=O)OCc1ccccc1)C(=O)CON1CCCC1=O` [Example 2, 3-Benzyloxycarbonylamino-4-oxo-5-(2-oxo-pyrrolidin-1-yloxy)-pentanoic acid] showed a pIC50 in data set [2] of 3.40. In data set [3], this compound gave a pKi of 4.06.
Turning to `O=C(O)CC(NC(=O)OCc1ccccc1)C(=O)CONC(=O)Cc1ccccc1` (centres unmarked) [Example 1, 3-Benzyloxycarbonylamino-4-oxo-5-phenylacetylaminooxy-pentanoic acid], the pIC50 in data set [1] (PBMC) is 3.09; in data set [2], 3.59. Moreover, the negative-log Ki (pKi) in data set [3] is 4.10.
Consider `O=C(O)CC(NC(=O)OCc1ccccc1)C(=O)CON1C(=O)CC2CCCCC21` (centres unmarked) [Example 6], for which, in data set [2], the pIC50 is 4.43. The negative-log Ki (pKi) in data set [3] was 5.04.
